Results from the supplement of paper PMC11451515.

Experiments:
Conditions in all cases: 48 h
[1] = tested on: SEM cells; test: AUC of viability dose-response curve (% viability x log10 dose units); higher = less sensitive
How it was run: (§1)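 Leukemia cells adapted to each medium were seeded at 500 or 1000 cells/well in 1536-well plates and dosed with library compounds in DMSO at 11 threefold doses from 47 μM to 0.79 nM for 48 h at 37°C. CellTiter-Glo One luminescence was normalised per plate to DMSO and cell-free wells, then fitted with a four-parameter log-logistic model over log10 doses. Area under the curve was taken from this fit by the trapezoidal rule, with curves above full viability scaled and curves failing quality control removed.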

[2] = tested on: P12-Ichikawa; test: as above
How it was run: as §1

[3] = tested on: NOMO1; test: as above
How it was run: as §1

[4] = tested on: SEM cells; test: cell viability relative to DMSO control; higher = less cytotoxic
How it was run: (§2)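 Leukemia cells (NOMO1 or SEM, 500 cells/well; P12-Ichikawa, 1000 cells/well) were seeded in 5 μl in 1536-well plates after at least four passages of adaptation to each medium. They received library compounds in DMSO by pin dosing, 11 threefold points from 47 μM to 0.79 nM. Luminescence with CellTiter-Glo One was read after 48 h at 37°C. Viability is stated per plate relative to DMSO wells, with cell-free wells as background.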

[5] = tested on: P12-Ichikawa; test: as above
How it was run: as §2

[6] = tested on: NOMO1; test: as above
How it was run: as §2

CO[C@@H](C(=O)N1Cc2[nH]nc(NC(=O)c3ccc(N4CCN(C)CC4)cc3)c2C1)c1ccccc1
AUC of viability dose-response curve
Conditions	[1]	[2]	[3]
HPLM + 10% dialyzed FBS	277	268	352
RPMI 5 mM glucose + 10% FBS	247	260	319
RPMI 5 mM glucose + 10% dialyzed FBS	248	300	319

cell viability [%]
Conditions	[4]	[5]	[6]
HPLM + 10% dialyzed FBS, 0.000781 µM	95.5	89.1	88
HPLM + 10% dialyzed FBS, 0.00234 µM	84.2	93.6	93.2
HPLM + 10% dialyzed FBS, 0.00702 µM	103	93	102
HPLM + 10% dialyzed FBS, 0.0211 µM	90.9	95.9	94.2
HPLM + 10% dialyzed FBS, 0.0632 µM	71.1	80	72.2
HPLM + 10% dialyzed FBS, 0.19 µM	55.6	35.4	62.2
HPLM + 10% dialyzed FBS, 0.569 µM	38.4	15	58.6
HPLM + 10% dialyzed FBS, 1.71 µM	24.6	20.3	53.3
HPLM + 10% dialyzed FBS, 5.12 µM	28.3	23.2	54.1
HPLM + 10% dialyzed FBS, 15.4 µM	24.3	25	66.8
HPLM + 10% dialyzed FBS, 46.1 µM	24.9	50.8	71.7
RPMI 5 mM glucose + 10% FBS, 0.000781 µM	107	90	80.4
RPMI 5 mM glucose + 10% FBS, 0.00234 µM	92.3	87.3	79.4
RPMI 5 mM glucose + 10% FBS, 0.00702 µM	103	84.9	79.7
RPMI 5 mM glucose + 10% FBS, 0.0211 µM	94.6	89	83.2
RPMI 5 mM glucose + 10% FBS, 0.0632 µM	59.3	75.9	81.5
RPMI 5 mM glucose + 10% FBS, 0.19 µM	38.9	30.3	64.4
RPMI 5 mM glucose + 10% FBS, 0.569 µM	23.5	19.9	51.5
RPMI 5 mM glucose + 10% FBS, 1.71 µM	20.5	28.9	50.9
RPMI 5 mM glucose + 10% FBS, 5.12 µM	19.7	28.3	55.8
RPMI 5 mM glucose + 10% FBS, 15.4 µM	15	26.1	53.4
RPMI 5 mM glucose + 10% FBS, 46.1 µM	18.7	42.3	56.3
RPMI 5 mM glucose + 10% dialyzed FBS, 0.000781 µM	87.9	87.1	83.7
RPMI 5 mM glucose + 10% dialyzed FBS, 0.00234 µM	97.1	95.8	87.2
RPMI 5 mM glucose + 10% dialyzed FBS, 0.00702 µM	87.4	95.9	88.5
RPMI 5 mM glucose + 10% dialyzed FBS, 0.0211 µM	90.7	95.5	88.7
RPMI 5 mM glucose + 10% dialyzed FBS, 0.0632 µM	59.8	82.8	71.9
RPMI 5 mM glucose + 10% dialyzed FBS, 0.19 µM	39.5	34.5	52.5
RPMI 5 mM glucose + 10% dialyzed FBS, 0.569 µM	32.2	28.4	59.3
RPMI 5 mM glucose + 10% dialyzed FBS, 1.71 µM	20.2	37.9	47.4
RPMI 5 mM glucose + 10% dialyzed FBS, 5.12 µM	25.1	39.4	48.9
RPMI 5 mM glucose + 10% dialyzed FBS, 15.4 µM	20	42.8	55.3
RPMI 5 mM glucose + 10% dialyzed FBS, 46.1 µM	16.4	54.8	54.3

N#C/C(=C(/N)Sc1ccc(N)cc1)c1ccccc1C(F)(F)F
AUC of viability dose-response curve
Conditions	[1]	[2]	[3]
HPLM + 10% dialyzed FBS	428	433	354
RPMI 5 mM glucose + 10% FBS	424	417	386
RPMI 5 mM glucose + 10% dialyzed FBS	404	436	366

cell viability [%], HPLM + 10% dialyzed FBS
Conditions	[4]	[5]
0.000781 µM	91.1	123
0.00234 µM	141	121
0.00702 µM	124	125
0.0211 µM	129	125
0.0632 µM	129	133
0.19 µM	124	118
0.569 µM	126	120
1.71 µM	110	103
5.12 µM	85.4	94.4
15.4 µM	82.3	94.1
46.1 µM	64.6	83.9

COc1cc2nc(N3CCN(C(=O)C4COc5ccccc5O4)CC3)nc(N)c2cc1OC (stereo not given)
AUC of viability dose-response curve
Conditions	[1]	[2]	[3]
HPLM + 10% dialyzed FBS	469	457	439
RPMI 5 mM glucose + 10% FBS	450	461	452
RPMI 5 mM glucose + 10% dialyzed FBS	447	467	456

cell viability [%], HPLM + 10% dialyzed FBS
Conditions	[4]	[5]
0.000781 µM	123	122
0.00234 µM	125	125
0.00702 µM	115	137
0.0211 µM	126	127
0.0632 µM	122	129
0.19 µM	128	132
0.569 µM	113	132
1.71 µM	132	131
5.12 µM	120	115
15.4 µM	119	112
46.1 µM	91.4	82.3
